Reference: patent US8048825B2, “Haloalkylsulfonanilide derivatives or salt thereof, herbicide comprising the derivatives as active ingredient, and use of the herbicide” (Nihon Nohyaku Co., Ltd., priority 2006, dated 2011)

Key:
Type in all cases: in vivo
Lindernia procumbens [1] = test: Herbicidal efficacy on paddy field weeds of pre-emergence stage (Pre), Test Example 1; settings: 1000 g/ha as active ingredient, examined after 21 days
How it was run: (§1)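 Clay-loam pots sown with Scirpus juncoides, covered with soil containing Lindernia procumbens seed, flooded to 5 cm. Next day formulated compound applied dropwise to water at 1000 g/ha a.i. Greenhouse-grown; growth inhibition versus untreated scored 0–5 after 21 days.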

Scirpus juncoides [2] = test: as above; settings: 1000 g/ha as active ingredient, examined after 21 days
How it was run: as §1

Echinochloa crus-galli = test: Herbicidal effect on paddy field weeds of post-emergence stage (Post), Test Example 2; settings: one-leaf stage, 1000 g/ha as active ingredient, examined after 21 days
How it was run: (§2)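 Scirpus juncoides and Echinochloa crus-galli sown in clay loam, with Lindernia procumbens seed in the soil cover, under 5 cm flooding in greenhouse. At one-leaf stage, 1000 g/ha active ingredient applied to pot water. Efficacy scored visually 0–5 against untreated plants at 21 days after treatment.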

Lindernia procumbens [3] = test: as above; settings: one-leaf stage, 1000 g/ha as active ingredient, examined after 21 days
How it was run: as §2

Scirpus juncoides [4] = test: as above; settings: one-leaf stage, 1000 g/ha as active ingredient, examined after 21 days
How it was run: as §2

Compound	Lindernia procumbens pre (herbicidal effect) (Lindernia procumbens [1])	Scirpus juncoides pre (herbicidal effect) (Scirpus juncoides [2])	Echinochloa crus-galli post (herbicidal effect) (Echinochloa crus-galli)	Lindernia procumbens post (herbicidal effect) (Lindernia procumbens [3])	Scirpus juncoides post (herbicidal effect) (Scirpus juncoides [4])
CC(C)COC(=O)N(c1ccccc1CN1CCC(C)(C2CCC2)OC1=O)S(=O)(=O)C(F)(F)F (centres unmarked) [Compound 1-387]	5 (100% herbicidal effect, phytotoxicity)	5 (100% herbicidal effect, phytotoxicity)	5 (100% herbicidal effect, phytotoxicity)	5 (100% herbicidal effect, phytotoxicity)	5 (100% herbicidal effect, phytotoxicity)
CCOC(=O)N(c1ccccc1CN1CCC(c2ccccc2)(C2CCC2)OC1=O)S(=O)(=O)C(F)(F)F (centres unmarked) [Compound 1-208]	4 (90%-99% herbicidal effect, phytotoxicity)	4 (90%-99% herbicidal effect, phytotoxicity)	4 (90%-99% herbicidal effect, phytotoxicity)	4 (90%-99% herbicidal effect, phytotoxicity)	4 (90%-99% herbicidal effect, phytotoxicity)
CCOC(=O)N(c1ccccc1CN1CCCCOC1=O)S(=O)(=O)C(F)(F)F [2-3]	4 (90%-99% herbicidal effect, phytotoxicity)	4 (90%-99% herbicidal effect, phytotoxicity)	4 (90%-99% herbicidal effect, phytotoxicity)	4 (90%-99% herbicidal effect, phytotoxicity)	4 (90%-99% herbicidal effect, phytotoxicity)
CCOC(=O)N(c1ccccc1CN1CCC(C)(CC)OC1=O)S(=O)(=O)C(F)(F)F (centres unmarked) [Compound 1-71]	4 (90%-99% herbicidal effect, phytotoxicity)	4 (90%-99% herbicidal effect, phytotoxicity)	4 (90%-99% herbicidal effect, phytotoxicity)	4 (90%-99% herbicidal effect, phytotoxicity)	4 (90%-99% herbicidal effect, phytotoxicity)
COC(=O)N(c1ccccc1CN1CCC(C)(C(F)(F)F)OC1=O)S(=O)(=O)C(F)(F)F (centres unmarked) [Compound 1-81]	5 (100% herbicidal effect, phytotoxicity)	4 (90%-99% herbicidal effect, phytotoxicity)	4 (90%-99% herbicidal effect, phytotoxicity)	5 (100% herbicidal effect, phytotoxicity)	4 (90%-99% herbicidal effect, phytotoxicity)
COC(=O)N(c1ccccc1CN1CCC(c2c(C)cccc2C)OC1=O)S(=O)(=O)C(F)(F)F (centres unmarked) [Compound 1-361]	5 (100% herbicidal effect, phytotoxicity)	5 (100% herbicidal effect, phytotoxicity)	4 (90%-99% herbicidal effect, phytotoxicity)	5 (100% herbicidal effect, phytotoxicity)	4 (90%-99% herbicidal effect, phytotoxicity)
CCCCCOC(=O)N(c1ccccc1CN1CCC(C)(C)OC1=O)S(=O)(=O)C(F)(F)F [Compound 1-52]	4 (90%-99% herbicidal effect, phytotoxicity)	4 (90%-99% herbicidal effect, phytotoxicity)	4 (90%-99% herbicidal effect, phytotoxicity)	4 (90%-99% herbicidal effect, phytotoxicity)	4 (90%-99% herbicidal effect, phytotoxicity)
CCOC(=O)N(c1ccccc1CN1CCC(C)(C(F)(F)F)OC1=O)S(=O)(=O)C(F)(F)F (centres unmarked) [Compound 1-82]	5 (100% herbicidal effect, phytotoxicity)	5 (100% herbicidal effect, phytotoxicity)	4 (90%-99% herbicidal effect, phytotoxicity)	5 (100% herbicidal effect, phytotoxicity)	4 (90%-99% herbicidal effect, phytotoxicity)
CCOC(=O)N(c1ccccc1CN1CCCCOC1=S)S(=O)(=O)C(F)(F)F [2-14]	4 (90%-99% herbicidal effect, phytotoxicity)	4 (90%-99% herbicidal effect, phytotoxicity)	4 (90%-99% herbicidal effect, phytotoxicity)	4 (90%-99% herbicidal effect, phytotoxicity)	4 (90%-99% herbicidal effect, phytotoxicity)
CCOC(=O)N(c1ccccc1CN1CCC(c2ccccc2)(C(F)(F)F)OC1=O)S(=O)(=O)C(F)(F)F (centres unmarked) [Compound 1-230]	5 (100% herbicidal effect, phytotoxicity)	5 (100% herbicidal effect, phytotoxicity)	4 (90%-99% herbicidal effect, phytotoxicity)	5 (100% herbicidal effect, phytotoxicity)	4 (90%-99% herbicidal effect, phytotoxicity)
CCOC(=O)N(c1ccccc1CN1CCC(C)(C2CCC2)OC1=O)S(=O)(=O)C(F)(F)F (centres unmarked) [Compound 1-384]	5 (100% herbicidal effect, phytotoxicity)	5 (100% herbicidal effect, phytotoxicity)	4 (90%-99% herbicidal effect, phytotoxicity)	5 (100% herbicidal effect, phytotoxicity)	4 (90%-99% herbicidal effect, phytotoxicity)
CCC1(C(C)C)CCN(Cc2ccccc2NS(=O)(=O)C(F)(F)F)C(=O)O1 (racemic) [Compound 1-450]	5 (100% herbicidal effect, phytotoxicity)	5 (100% herbicidal effect, phytotoxicity)	4 (90%-99% herbicidal effect, phytotoxicity)	5 (100% herbicidal effect, phytotoxicity)	4 (90%-99% herbicidal effect, phytotoxicity)
CCC1(C(F)(F)F)CCN(Cc2ccccc2N(C(=O)OC)S(=O)(=O)C(F)(F)F)C(=O)O1 (centres unmarked) [Compound 1-92]	5 (100% herbicidal effect, phytotoxicity)	4 (90%-99% herbicidal effect, phytotoxicity)	4 (90%-99% herbicidal effect, phytotoxicity)	5 (100% herbicidal effect, phytotoxicity)	4 (90%-99% herbicidal effect, phytotoxicity)
CCCCOC(=O)N(c1ccccc1CN1CCCOC1=S)S(=O)(=O)C(F)(F)F [Compound 1-16]	4 (90%-99% herbicidal effect, phytotoxicity)	4 (90%-99% herbicidal effect, phytotoxicity)	4 (90%-99% herbicidal effect, phytotoxicity)	4 (90%-99% herbicidal effect, phytotoxicity)	4 (90%-99% herbicidal effect, phytotoxicity)
CC1(C2(C)CCN(Cc3ccccc3NS(=O)(=O)C(F)(F)F)C(=O)O2)CC1 (centres unmarked) [Compound 1-371]	5 (100% herbicidal effect, phytotoxicity)	5 (100% herbicidal effect, phytotoxicity)	4 (90%-99% herbicidal effect, phytotoxicity)	5 (100% herbicidal effect, phytotoxicity)	4 (90%-99% herbicidal effect, phytotoxicity)
CC(C)COC(=O)N(c1ccccc1CN1CCCOC1=S)S(=O)(=O)C(F)(F)F [Compound 1-17]	4 (90%-99% herbicidal effect, phytotoxicity)	4 (90%-99% herbicidal effect, phytotoxicity)	4 (90%-99% herbicidal effect, phytotoxicity)	4 (90%-99% herbicidal effect, phytotoxicity)	4 (90%-99% herbicidal effect, phytotoxicity)
CCC1(CC)CCN(Cc2ccccc2N(C(=O)OCC(C)(C)C)S(=O)(=O)C(F)(F)F)C(=S)O1 [Compound 1-120]	4 (90%-99% herbicidal effect, phytotoxicity)	4 (90%-99% herbicidal effect, phytotoxicity)	4 (90%-99% herbicidal effect, phytotoxicity)	4 (90%-99% herbicidal effect, phytotoxicity)	4 (90%-99% herbicidal effect, phytotoxicity)
CCCC1(CC)CCN(Cc2ccccc2N(C(=O)OCC(C)C)S(=O)(=O)C(F)(F)F)C(=O)O1 (racemic) [Compound 1-499]	5 (100% herbicidal effect, phytotoxicity)	5 (100% herbicidal effect, phytotoxicity)	4 (90%-99% herbicidal effect, phytotoxicity)	5 (100% herbicidal effect, phytotoxicity)	4 (90%-99% herbicidal effect, phytotoxicity)
CCC1(C(F)(F)F)CCN(Cc2ccccc2NS(=O)(=O)C(F)(F)F)C(=O)O1 (centres unmarked) [Compound 1-91]	5 (100% herbicidal effect, phytotoxicity)	4 (90%-99% herbicidal effect, phytotoxicity)	4 (90%-99% herbicidal effect, phytotoxicity)	5 (100% herbicidal effect, phytotoxicity)	4 (90%-99% herbicidal effect, phytotoxicity)
